Experiments:
[1] = tested on: bone and marrow tissue sections (mouse femur, rib); experiment: Biotinylated peptide binding to bone/marrow tissue sections, Avidin-FITC fluorescence; set-up: key to Localization of peptide binding: Bone/Marrow (tissue sections): ✓: Check marks indicate positive binding observed with FITC; −: a dash indicates a negative result
Procedure: Methods: Four-week old Swiss Webster mice were euthanized; the femurs were excised and decalcified in 0.25M EDTA in PBS solution for 5 days, and washed in PBS for 24 hours. The femoral shafts were obtained by cutting off the proximal and distal ends of the femur. The femoral shafts were placed in Tissue-Tek O.C.T. Compound (Sukura Finetek, Torrance, Calif.) and frozen at −20° C. overnight. Sections were cut at 10 μm serially with a cryomicrotome, rinsed with 1% BSA in PBS three times. To block non-specific reaction sections were incubated with Avidin/Biotin Blocking Kit (Vector Laboratories, Inc. Burlingame, Calif.) according to the manufacturer's instructions. Following another rinse with PBS, 150 μl 10 mM solution of each biotinylated peptide (L1, L2, L7, R1, R8) was added to the slides and incubated for 1 hour at room temperature. In negative controls, only PBS was added. After rewashes with 1% BSA, 150 μl of 1:50,000 dilution of Avidin-FITC was added to each slide and incubated overnight at 4° C.
The sections were washed with 1% BSA in PBS and mounted with Vectashield (Vector Laboratories Inc., Burlingame, Calif.). Fluorescence was visualized using a Nikon eclipse E600 microscope (Nikon, Melville, N.Y.) equipped with a 535 nm wavelength fluorescein filter. Images were obtained using a Sony DKC-5000 digital camera (Sony Electronics Inc.) and processed with Adobe Photoshop software (Adobe Systems Incorporated, San Jose, Calif.).
(§1) For localization of peptide binding to cells and tissue sections, biotinylated peptides were synthesized. Fluorescein-isothiocyanate (FITC) labeled Avidin was used to localize the peptides on cells in culture and in tissue sections in vitro by epiluminescence microscopy. In addition, the biotinylated peptides were detected at concentrations as low as 1 μM in slot blots.
Cryosections of decalcified femurs harvested from 4 week BALB/c mice were incubated with biotinylated peptide and Avidin-FITC. […] The distribution of fluorescence throughout the marrow was uneven. […] In control slides incubated with PBS without peptide, none of the cells could be detected by fluorescence (not shown). […]

[2] = tested on: bone and bone marrow; experiment: In vivo biopanning with 12-mer peptide phage display library; set-up: species or system BALB/c mice
Text: The Ph.D.-12 Phage Display Peptide Library Kit (New England Biolabs, Beverly, Mass.) used in this study is based on a combinatorial library of random peptide 12-mers fused to a minor coat protein (pIII). […] The peptide is followed by a short spacer of four amino acid residues, the first three residues of which are glycine and the fourth of which is serine, and then the wild-type III sequence. The library consists of approximately 2.7×10^9 electroporated sequences, amplified once to yield approximately 55 copies of each sequence.
For in vivo biopanning, BALB/c mice 8 weeks of age were injected 3.4×10^10 pfu of phage into the heart. The animals were euthanized after 5 minutes, and the tissues (bone, bone marrow, kidney, liver, and spleen) were collected for analysis. The bound phage was eluted according the manufacturer's instructions. The eluted phage was titered, amplified, purified, and injected again at the same concentration.
The frequency of each peptide in bone and bone marrow was compared with its location in other tissues such as liver, kidney, lung, spleen, and brain. Thirteen unique peptide sequences eluted from bone and marrow were identified were identified by sequencing phage DNA. The peptides were synthesized using the polystyrene solid support on a Protein Technologies Symphony Multiple Channel Synthesizer.

[3] = tested on: human bone marrow endothelial cells (HBME); experiment: Peptide binding to HBME cells in culture (Avidin-FITC); set-up: key: ✓: Check marks indicate positive binding observed with FITC; −: a dash indicates a negative result
Procedure: as §1
(§2) Bone marrow cells isolated from mouse femur were lifted with ethylenediaminetetraacetic acid (EDTA) and trypsin, resuspended, and allowed to attach on fibronectin-coated chamber slides for Avidin-FITC staining. […] The D1 cell is a multipotential mesenchymal stem-like line that was isolated from bone marrow and shown to have the characteristics of osteoprogenitor cells. This cell line has been well established and used successfully in several in vitro and in vivo studies in our laboratory. Peptide binding to human bone marrow endothelial cells (HBME) and bovine aortic endothelial cells (BAEC) in culture was also tested using the same procedure.

[4] = tested on: bovine aortic endothelial cells (BAEC); experiment: Peptide binding to BAEC in culture (Avidin-FITC); set-up: key: ✓: Check marks indicate positive binding observed with FITC; −: a dash indicates a negative result
Procedure: as §1, §2

[5] = tested on: Bone marrow cells isolated from mouse femur; experiment: Peptide binding to bone marrow cells in culture (Avidin-FITC); set-up: key to Localization of peptide binding: Marrow (cells in culture): ✓: Check marks indicate positive binding observed with FITC; −: a dash indicates a negative result
Procedure: as §1, §2

[6] = tested on: Membrane and cytosol fractions from bovine aortic endothelial cells; experiment: Affinity chromatography of BAEC fractions on immobilized peptide; type: binding
Procedure: Membrane and cytosol fractions from human bone marrow endothelial cells and bovine aortic endothelial cells were prepared and used to identify the components from within these fractions that bind to the peptides using affinity chromatography). […] Cell surface nucleolin is present at higher concentrations in actively dividing cells and is down regulated in cells when they become quiescent. Nucleolin is the apparent cell surface receptor of E-coli intimin-gamma. Cell bound intimin has been proposed to trigger a host cell response similar to the extension of filipodia when cells bind to laminin. […] Table 3 provides a summary of peptide-binding partners (putative receptors) identified by affinity chromatography of cell lysates.

[7] = tested on: Unicortical femoral defects; experiment: Peptide-mediated osteogenesis in cortical bone defects (Example 8); type: in vivo, Fisher 344 rats; details: 100 mM peptide in gelfoam, two weeks postoperatively, versus gelfoam+PBS
Procedure: In an in vivo study, all 13 peptides at a concentration of 100 mM were tested for their ability to potentiate osteogenesis. A gelfoam cylinder 1.5 mm in diameter 2 mm in length was used as carrier for the peptides. Unicortical femoral defects 1.5 mm in diameter were created bilaterally in Fisher 344 rats; the left femoral defect was filled with gelfoam+PBS (Control), and the right femur with gelfoam+peptide. The samples were harvested and examined two weeks postoperatively. To examine the effect of peptide concentration on cortical bone regeneration, peptide L7 (SEQ ID NO:5) was used at 1, 5, and 20 mM. […] The time course of cortical bone repair with 20 mM L7 was examined at 5, 10, 15, and 20 days.

[8] = BALB/c mouse femur cryosections, biotinylated peptide
[9] = Swiss Webster mouse femur cryosections, 10 mM biotinylated peptide

SER-TYR-SER-GLN-MET-ASP-PRO-PRO-ARG-SER-LEU-PRO-GLY-GLY-GLY-SER (SYSQMDPPRSLPGGGS; listed as Homo sapiens) [Peptide R8]
Cell shape preferentially recognized by peptide [1, 8]: recognized the round cells preferentially
Extent of marrow cells detected by fluorescence [1, 8]: did not detect as many cells
Localization of peptide binding: Bone/Marrow (tissue sections) ([1]; FITC): ✓
Cell shape preferentially recognized by peptide [1, 9]: recognized the round cells preferentially
Extent of marrow cells detected by fluorescence [1, 9]: did not detect as many cells
PERCENT FREQUENCY ([2]; phage eluted from bone and bone marrow): 24.1%
PHAGE SEQUENCE FREQUENCY (number of times the sequence was found in a group of plaques) ([2]; phage eluted from bone and bone marrow after repeated rounds): 7/29
Localization of peptide binding: HBME [3]: ✓
Localization of peptide binding: BAEC [4]: ✓
Localization of peptide binding: Marrow (cells in culture) ([5]; FITC): ✓
Binding to adherent cells from bone marrow blowouts ([5]; fibronectin-coated chamber slides, Avidin-FITC staining): showed detectable binding
Binding partner from BAEC lysates ([6]; biotinylated peptide immobilized on avidin-agarose): vimentin was found to bind
Identification of binding partners by affinity chromatography: BAEC ([6]; cell lysates): ✓Vimentin
Effectiveness at stimulating osteogenesis and cortical bone repair [7]: most effective at stimulating osteogenesis and cortical bone repair
